Reference: publication PMC9081329, “Pharmacokinetics, Mass Balance, Excretion, and Tissue Distribution of Plasmalogen Precursor PPI-1011” (Frontiers in Cell and Developmental Biology, 2022)

Assay: Single dose tissue distribution study (QWBA, LSC of blood and plasma)
Assay type: in vivo, Sprague-Dawley rats
Protocol: Six male rats were administered a single oral dose of [^14C]PPI-1011 at 100 mg/kg (200 μCi/kg) and one rat was sacrificed at each of the following time points after the administration of the dose: 8, 12, 18, 24, 48, or 168 h. Terminal blood was collected by cardiac puncture directly into tubes with K2EDTA, an aliquot was stored at 4°C until LSC was performed for radioactivity, while the remaining blood was processed to plasma and stored at −20°C until LSC. Following blood collection, the carcasses were frozen in a cold bath with hexanes and dry ice for at least 8 min and then dried and stored at −70°C for at least 5 h. The carcasses were transferred to a −20°C freezer for at least 12 h before embedding.
QWBA was used to determine radioactivity concentrations in the caecum (contents and mucosa), large intestine (contents and mucosa), small intestine (contents and mucosa), stomach (contents and mucosa), brain, choroid plexus, spinal cord, bone, skin, adrenal gland, pineal body, pituitary gland, thyroid gland, liver, kidney (cortex, medulla and whole kidney), urinary bladder (contents and wall), brown fat, white fat, eye (lens, uveal tract and whole eye), epididymis, prostate gland, testis, ovary, uterus, lung, exorbital lachrymal gland, Harderian gland, pancreas, salivary gland, skeletal muscle, myocardium, cardiac blood, bone marrow, lymph node, spleen, and thymus. As well, LSC was used to determine the total radioactivity in the whole blood and plasma.
The whole-body cryosectioning technique described by ([Ullberg, 1977]) was the basis for embedding and cryosectioning the rats assigned to this study. Each frozen carcass was shaved, and then the limbs and tail were removed prior to embedding. Chilled (4°C) 3% CMC (low viscosity) was utilized to provide a firm support of reinforced ice around each rat and for a secure attachment to the microtome stage. Upon thorough freezing of the embedding medium surrounding each rat, the frozen CMC block was removed from the freezing bath and four 3/8 inch holes were drilled into the block. One cryosection quality control standard (CQCS) was prepared with a known amount of radioactivity and at least 1 ml aliquots were added to each of the four drilled holes. CQCS data were utilized to evaluate the overall performance of the QWBA assay.
Each frozen rat was sagittally trimmed (50–100 μm) at −20°C until exposure of a few target tissues employing a Leica Cryomacrocut heavy-duty microtome (Leica Microsystems Inc.,). Disposable stainless steel Feather type H45L knives (Feather Safety Razor Co., Ltd.) were utilized for trimming and sectioning each frozen rat. Several thinner sections (50 μm) were discarded prior to obtaining multiple 50 μm sections at various cryosectioning levels for QWBA analysis. Upon the collection of at least 60 target tissues in multiple cryosectioning levels, the cryosections were kept in the Cryomacrocut cryochamber for a minimum of 18 h for dehydration depending upon the number of cryosections within the cryochamber. After dehydration was complete, the cryosections were transferred to ambient temperature for processing. Mounted whole-body cryosections and a set of 15 standards were sandwiched between a standard phosphor screen and an exposure cassette. All cryosections were exposed to the phosphor screen for 4-days in a cabinet protected with lead prior to scanning using a Typhoon PhosphorImager (Cytiva). MCID™ Analysis software (InterFocus Ltd.) was utilized to generate a calibration curve of the STD nominal concentrations (nCi/g) versus PhosphorImager response (counts/μm^2 minus background) by weighted (1/x) linear regression analysis ([Potchoiba et al., 1995]; [Potchoiba et al., 1998]). The linear regression curve was then utilized to determine the concentration (nCi/g) of total radioactivity in whole-body tissues and blood. Radioactivity concentrations were expressed as μg Eq/g based on the specific activity of the compound in the final dose formulations. […]

[1] = 48 h post single oral 100 mg/kg
[2] = 168 h post single oral 100 mg/kg

CC/C=C\C/C=C\C/C=C\C/C=C\C/C=C\C/C=C\CCC(=O)O[C@H](CO[14CH2]CCCCCCCCCCCCCCC)COC(=O)CCCCC1CCSS1 (stereo partly shown) [[^14C]PPI-1011]
Radioactivity concentration, Small Intestines [1]: 43.3 μg equivalents/g | Radioactivity concentration, Spinal Cord [1]: 2.56 μg equivalents/g | Radioactivity concentration, Spleen [1]: 33.1 μg equivalents/g | Radioactivity concentration, Stomach [1]: 8.01 μg equivalents/g | Radioactivity concentration, Testis [1]: 4.02 μg equivalents/g | Radioactivity concentration, Thalamus [1]: 1.91 μg equivalents/g | Radioactivity concentration, Thymus [1]: 9.58 μg equivalents/g | Radioactivity concentration, Thyroid [1]: 27.2 μg equivalents/g | Radioactivity concentration, Whole Brain [1]: 2.45 μg equivalents/g | Radioactivity concentration, Adipose - Brown [2]: 89.0 μg equivalents/g | Radioactivity concentration, Adipose - Brown (Vessel Wall) [2]: 76.7 μg equivalents/g | Radioactivity concentration, Adipose - Subcutaneous [2]: 89.3 μg equivalents/g | Radioactivity concentration, Adipose - Visceral [2]: 90.7 μg equivalents/g | Radioactivity concentration, Adrenal Gland [2]: 142 μg equivalents/g | Radioactivity concentration, Bladder Wall [2]: < 0.485 μg equivalents/g | Radioactivity concentration, Blood - QWBA [2]: 2.56 μg equivalents/g | Radioactivity concentration, Bone Marrow [2]: 4.69 μg equivalents/g | Radioactivity concentration, Cerebellum [2]: 3.59 μg equivalents/g | Radioactivity concentration, Cerebrum [2]: 2.94 μg equivalents/g | Radioactivity concentration, Choroid Plexus [2]: 10.4 μg equivalents/g | Radioactivity concentration, Colliculus [2]: 3.97 μg equivalents/g | Radioactivity concentration, Diaphragm [2]: 11.7 μg equivalents/g | Radioactivity concentration, Epididymis [2]: 7.75 μg equivalents/g | Radioactivity concentration, Esophagus [2]: 5.34 μg equivalents/g | Radioactivity concentration, Exorbital Lacrimal Gland [2]: 7.36 μg equivalents/g | Radioactivity concentration, Gastric Mucosa [2]: 14.5 μg equivalents/g | Radioactivity concentration, Harderian Gland [2]: 3.67 μg equivalents/g | Radioactivity concentration, Intra-Orbital Lacrimal Gland [2]: 5.01 μg equivalents/g | Radioactivity concentration, Kidney [2]: 14.5 μg equivalents/g | Radioactivity concentration, Large Intestines [2]: 14.0 μg equivalents/g | Radioactivity concentration, Liver [2]: 7.50 μg equivalents/g | Radioactivity concentration, Lung [2]: 11.2 μg equivalents/g | Radioactivity concentration, Lymph Node [2]: 12.3 μg equivalents/g | Radioactivity concentration, Medulla Oblongata [2]: 3.13 μg equivalents/g | Radioactivity concentration, Muscle [2]: 7.01 μg equivalents/g | Radioactivity concentration, Myocardium [2]: 13.4 μg equivalents/g | Radioactivity concentration, Nasal Turbinates [2]: 4.29 μg equivalents/g | Radioactivity concentration, Ocular - Uveal Tract [2]: 6.48 μg equivalents/g | Radioactivity concentration, Ocular - Whole Eye [2]: 1.55 μg equivalents/g | Radioactivity concentration, Olfactory Bulb [2]: 2.25 μg equivalents/g | Radioactivity concentration, Pancreas [2]: 18.2 μg equivalents/g | Radioactivity concentration, Parotid Gland [2]: 12.3 μg equivalents/g | Radioactivity concentration, Pineal Gland [2]: 12.0 μg equivalents/g | Radioactivity concentration, Pituitary Gland [2]: 12.9 μg equivalents/g | Radioactivity concentration, Preputial Gland [2]: 69.0 μg equivalents/g | Radioactivity concentration, Prostate [2]: 4.44 μg equivalents/g | Radioactivity concentration, Renal Cortex [2]: 15.3 μg equivalents/g | Radioactivity concentration, Renal Medulla [2]: 11.8 μg equivalents/g | Radioactivity concentration, Salivary Gland [2]: 15.4 μg equivalents/g | Radioactivity concentration, Seminal Vesicles [2]: < 0.485 μg equivalents/g | Radioactivity concentration, Skin - Non-Pigmented [2]: 10.2 μg equivalents/g | Radioactivity concentration, Small Intestines [2]: 139 μg equivalents/g | Radioactivity concentration, Spinal Cord [2]: 3.33 μg equivalents/g | Radioactivity concentration, Spleen [2]: 9.36 μg equivalents/g | Radioactivity concentration, Stomach [2]: 4.97 μg equivalents/g | Radioactivity concentration, Testis [2]: 3.08 μg equivalents/g | Radioactivity concentration, Thalamus [2]: 2.78 μg equivalents/g | Radioactivity concentration, Thymus [2]: 7.84 μg equivalents/g | Radioactivity concentration, Thyroid [2]: 18.9 μg equivalents/g | Radioactivity concentration, Whole Brain [2]: 3.08 μg equivalents/g | Decline of radioactivity from peak concentration, brown adipose (by 168 HPD, single dose): approximately 5 fold | Decline of radioactivity from peak concentration, subcutaneous adipose (by 168 HPD, single dose): ~2 fold | Decline of radioactivity from peak concentration, visceral adipose (by 168 HPD, single dose): ~3 fold | Average concentration in choroid plexus, pineal gland, pituitary gland versus non-circumventricular CNS tissues (seven days after single dose): approximately 4 fold | Radioactivity in urine within the urinary bladder (single dose): no detection of radioactivity | Time of highest blood concentration (single dose): 8 HPD | Time of highest peak concentration, bladder wall (single dose): 8 HPD | Time of highest peak concentration, brown adipose (single dose): 12 HPD | Time of highest peak concentration, cecum (single dose): 12 HPD | Time of highest peak concentration, choroid plexus (single dose): 12 HPD | Time of highest peak concentration, epididymis (single dose): 12 HPD | Time of highest peak concentration, esophagus (single dose): 8 HPD | Time of highest peak concentration, gastric mucosa (single dose): 8 HPD | Time of highest peak concentration, large intestines (single dose): 12 HPD | Time of highest peak concentration, pineal gland (single dose): 48 HPD | Time of highest peak concentration, pituitary gland (single dose): 18 HPD | Time of highest peak concentration, preputial gland (single dose): 12 HPD | Time of highest peak concentration, prostate (single dose): 24 HPD | Time of highest peak concentration, small intestines (single dose): 8 HPD | Time of highest peak concentration, stomach (single dose): 12 HPD | Time of highest peak concentration, subcutaneous adipose (single dose): 12 HPD | Time of highest peak concentration, testis (single dose): 18 HPD | Time of highest peak concentration, visceral adipose (single dose): 12 HPD | Time of peak levels, non-circumventricular CNS tissue (single dose): 168 HPD | Concentration in choroid plexus, pineal gland, pituitary gland versus non-circumventricular CNS tissues (throughout the time course, single dose): approximately 4 fold
